Results as given in patent publication US7705052B2, “Sulfonamide derivatives for the treatment of diabetes” (Merck Serono SA, priority 2003, dated 2010).

Test system: db/db mice
Experiment: In vivo assay in db/db mice (model of postprandial glycemia)
Conditions: db/db mice fasted 20 hours, 50 mg/kg p.o., 4 hrs after drug administration, compared to vehicle-treated animals (Group 1)
Method: In Vivo Assay in db/db Mice
The following assay aims at determining the anti-diabetic effect of the test compounds of formula (I) in a model of postprandial glycemia in db/db mice, in vivo.
The assay was performed as follows:
A total of 18 db/db mice (about 8-9 weeks; obtained from IFFACREDO, l'Arbreste, France) were fasted during 20 hours.
3 groups, each consisting of 6 animals were formed: • Group 1: The animals were administered (per os) a dose of 10 mg/kg of vehicle. • Group 2: The animals were administered (per os) a dose of 30 mg/kg of the test compound according to formula (I). • Group 3: The animals were administered (per os) a dose of 50 mg/kg of the test compound according to formula (I).
After oral administration of the compounds of formula (I) solubilized or suspended in CarboxyMethylCellulose (0.5%), Tween 20 (0.25%) and water as vehicle, the animals had access to commercial food (D04, UAR, Villemoisson/Orge, France) ad libitum. The diabetic state of the mice was verified by determining the blood glucose level before drug administration. Blood glucose and serum insulin levels were then determined 4 hrs after drug administration. […]
Changes in blood glucose and serum insulin of drug treated mice were expressed as a percentage of control (group 1: vehicle treated mice).

CCCCNC1CCN(S(=O)(=O)c2ccc(CNC(=O)c3ccc(Cl)cc3)s2)CC1 [4-chloro N-[(5-{[(butylamino)piperidin-1-yl]sulfonyl}thien-2-yl)methyl]benzamide]
decrease in the (serum/blood) insulin level (ELISA): 61%
decrease in blood glucose level induced by food intake: 42%
